“Also recorded” adds a separate entry of the source. Square brackets hold non-standard residues; d marks the D form. Ends that are not written are not given here.
Columns and labels:
[1] = system: plasma membrane of several mammalian cell types; settings: energy-independent manner; cited from earlier work
[2] = system: vitiligo mice; assay: Progressive depigmentation in the pelage of the vitiligo mouse model; assay type: in vivo; settings: 0.25 mg/kg/day for four weeks before plucking, 2 weeks after plucking dorsal hairs, vs untreated
Protocol: Vitiligo mice described in Lerner et al., Journal of Investigative Dermatology, 87: 299-304 (1986) are obtained. Vitiligo mice are subdivided into 2 groups. Group I mice are administered a daily dose of 0.25 mg/kg/day of D-Arg-2′,6′-Dmt-Lys-Phe-NH2 for four weeks before plucking dorsal hairs whereas Group II vitiligo mice are treated with drug vehicle before plucking. The regrowth of amelanotic hairs is monitored via light microscopy.

[3] = system: melanocytes from human subjects diagnosed with vitiligo (VHM); assay: ATP production of melanocytes (fluorimetric determination); assay type: cell-based; settings: 2 μM added each day for 3 days, vs untreated (0 μM)
Protocol: Melanocytes were isolated and cultured from two human patients diagnosed with vitiligo (VHM). Cultured melanocytes from each patient were divided into two groups, wherein each group was treated with D-Arg-2′,6′-Dmt-Lys-Phe-NH2 at 0 μM and 2 μM. D-Arg-2′,6′-Dmt-Lys-Phe-NH2 was added to the growth media each day for 3 days. After 3 days, the melanocytes were lysed and ATP levels were measures by fluorimetric determination. Each assay was performed in triplicate.

[4] = system: melanocytes from human subjects diagnosed with vitiligo (VHM); assay: Mitochondrial membrane potential of melanocytes (JC-1 probe); assay type: cell-based; settings: peptide at 1.5 μM and 2.0 μM added each day for 7 days, vs 0 μM and untreated NHM
Protocol: Cultured melanocytes from each patient were divided into three groups, wherein each group was treated with D-Arg-2′,6′-Dmt-Lys-Phe-NH2 at 0 μM, 1.5 μM, and 2 μM. D-Arg-2′,6′-Dmt-Lys-Phe-NH2 added to the growth media each day for 7 days. After 7 days, mitochondrial membrane potential (ΔΨm) of the melanocytes were assessed with a JC-1 probe (see, e.g., JC-1 Mitochondrial Membrane Potential Assay Kit, Cayman Chemical Co., Ann Arbor, Mich.).

[5] = system: adoptive transfer mouse model of vitiligo; assay: Epidermal depigmentation in an adoptive transfer mouse model of vitiligo; assay type: in vivo; settings: adoptive transfer vitiligo mice, 0.25 mg/kg/day for four weeks; tail, nose, footpad; vs untreated
Protocol: Vitiligo mice described in Harris et al., Journal of Investigative Dermatology, 132: 1869-1876 (2012) are obtained. This adoptive transfer mouse model of vitiligo recapitulates the human condition by inducing epidermal depigmentation while sparing the hair. These mice are subdivided into 2 groups. Group I mice are administered a daily dose of 0.25 mg/kg/day of D-Arg-2′,6′-Dmt-Lys-Phe-NH2 for four weeks whereas Group II vitiligo mice are treated with drug vehicle and serve as controls. The loss of pigmentation in epidermal tissues such as the tail, nose and footpad is monitored via light microscopy.

[6] = molecular target: mu-opioid receptor (Homo sapiens, UniProt P35372); settings: stated in the description, no test described; cited from earlier work
[7] = system: autologous vitiligo skin explants; assay: T-cell accumulation and cytotoxic activity in autologous vitiligo skin explants; assay type: in vivo, human; settings: vitiligo patients, 0.25 mg/kg/day for twelve weeks, perilesional T-cells co-cultured with autologous skin explants 2 days
Protocol: Active vitiligo patients are subdivided into 2 groups. Group I subjects are administered a daily dose of 0.25 mg/kg/day of D-Arg-2′,6′-Dmt-Lys-Phe-NH2 for twelve weeks whereas Group II vitiligo subjects are treated with drug vehicle and serve as controls. Punch-biopsies are obtained flanking the depigmented macule from Group I and Group II vitiligo subjects. These biopsies are cultured to promote T-cell growth according to the procedures described in Van Den Boom et al., Journal of Investigative Dermatology, 129: 2220-2232 (2009). The ability of these perilesional T-cells to infiltrate and actively kill melanocytes within the skin tissue microenvironment is tested using skin explant assays. Autologous skin explants are generated according to the procedures described in Van Den Boom et al., Journal of Investigative Dermatology, 129: 2220-2232 (2009). Perilesional T-cells are co-cultured with normally pigmented autologous skin explants for 2 days. T-cells are allowed to infiltrate the skin explants and migrate toward the melanocytes located at the dermal-epidermal junction. Skin explant cryosections are analyzed for the presence of infiltrated T-cells, melanocytes, and apoptosis by immunohistochemistry or immunofluorescence as described in Van Den Boom et al., Journal of Investigative Dermatology, 129: 2220-2232 (2009).

mu-opioid receptor, sequence (P35372 whole entry, species assumed): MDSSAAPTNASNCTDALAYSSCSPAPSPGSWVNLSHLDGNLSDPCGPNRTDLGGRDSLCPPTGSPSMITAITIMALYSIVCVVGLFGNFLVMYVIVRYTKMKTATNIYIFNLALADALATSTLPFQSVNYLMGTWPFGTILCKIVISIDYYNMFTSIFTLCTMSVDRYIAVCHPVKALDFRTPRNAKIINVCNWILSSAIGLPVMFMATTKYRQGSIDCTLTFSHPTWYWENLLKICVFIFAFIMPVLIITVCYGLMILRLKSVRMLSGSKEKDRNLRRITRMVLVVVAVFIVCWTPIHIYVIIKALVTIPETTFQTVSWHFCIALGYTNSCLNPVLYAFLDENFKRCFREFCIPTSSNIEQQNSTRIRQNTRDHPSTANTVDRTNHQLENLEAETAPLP

2′,6′-Dmt-D-Arg-Phe-Lys-NH2
penetration of the plasma membrane [1]: readily penetrates the plasma membrane

D-Arg-2′,6′-Dmt-Lys-Phe-NH2
rate of progressive depigmentation [2]: reduced rate of progressive depigmentation
ATP production of VHM melanocytes [3]: elevated ATP production levels; also recorded: increased the ATP production
mitochondrial membrane potential (ΔΨm) of VHM melanocytes [4]: returned the mitochondrial membrane potential of the VHM melanocytes to levels found in untreated NHM melanocytes; also recorded: increased the mitochondrial membrane potential
mitochondrial membrane potential (ΔΨm) of VHM melanocytes ([4]; listed as D-Arg-2′6′-Dmt-Lys-Phe-NH2): nearly doubled
severity of depigmentation in epidermal tissues [5]: reduced severity of depigmentation
mu-opioid receptor agonist activity [6]: does not have mu-opioid receptor agonist activity
melanocyte survival rates in skin explants [7]: greater than untreated vitiligo explants

F[dR]FK-NH2
mu-opioid receptor agonist activity [6]: does not have mu-opioid receptor agonist activity

Tyr-D-Arg-Phe-Lys-NH2
mu-opioid receptor agonist activity [6]: has mu-opioid receptor agonist activity
